Measurements reported in paper PMC8400920, “Metabolism of Diterpenoids Derived from the Bark of Cinnamomum cassia in Human Liver Microsomes” (Pharmaceutics, 2021).

How the values were obtained:
[1] = test system: CYPs; assay: Metabolism of AHC in HLMs with SKF-525A, a nonselective CYP inhibitor; type: in vitro ADME, human; conditions: 10 µM AHC, 1 mg/mL HLMs, NGS, 60 min, depending on SKF-525A concentration
Description: To investigate CYP-mediated metabolism, 10 µM AHC was mixed with 1 mg/mL pooled HLMs and 0.1 M potassium phosphate buffer (pH 7.4). Then, SKF-525A, a general inhibitor of CYPs, was added at concentrations of 0.5, 1, and 5 mM. The reactions were initiated with the addition of NGS at […] for 60 min. After 60 min, the reactions were terminated by adding 400 µL of 100% acetonitrile. The mixtures were then centrifuged at 15,700× g for 10 min. Subsequently, 550 µL of supernatant was dried in a vacuum concentrator. The residue was dissolved in 100 µL of 20% MeOH (0.1% formic acid), and 5 µL of this sample was injected into a C18 column for LC–MS/MS analysis.
To confirm the metabolism of AHC by CYP enzymes, AHC was incubated in HLMs with SKF-525A, i.e., a nonspecific CYP inhibitor (Figure S7). […] Consequently, as the metabolism of AHC was inhibited by SKF-525A treatment, the production of all metabolites was reduced in an SKF-525A concentration-dependent manner.

[2] = target: T1, CYP2C8 (Homo sapiens, UniProt P10632); assay: AHC metabolism by recombinant cDNA-expressed CYP isoform; type: in vitro ADME; conditions: 10 µM AHC, 10 pmol recombinant CYP, NGS, 37 °C, 60 min
T1 construct: purchased Corning Gentest
T1 sequence (P10632 1-490): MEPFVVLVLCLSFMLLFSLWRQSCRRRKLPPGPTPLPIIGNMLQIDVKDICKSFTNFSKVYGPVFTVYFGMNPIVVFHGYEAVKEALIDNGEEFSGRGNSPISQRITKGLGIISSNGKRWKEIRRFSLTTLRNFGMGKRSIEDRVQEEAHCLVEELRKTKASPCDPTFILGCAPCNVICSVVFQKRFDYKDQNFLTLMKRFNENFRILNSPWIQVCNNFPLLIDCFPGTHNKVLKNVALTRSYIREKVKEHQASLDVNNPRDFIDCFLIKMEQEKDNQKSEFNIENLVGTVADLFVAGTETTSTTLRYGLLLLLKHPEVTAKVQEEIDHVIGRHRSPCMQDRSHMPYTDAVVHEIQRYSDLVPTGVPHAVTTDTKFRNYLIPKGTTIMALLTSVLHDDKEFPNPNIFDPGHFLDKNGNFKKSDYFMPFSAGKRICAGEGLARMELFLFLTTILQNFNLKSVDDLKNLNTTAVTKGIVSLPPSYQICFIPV
Description: (§1) To identify the metabolic enzymes for AHC, 10 µM AHC was incubated with 10 pmol of human recombinant cDNA-expressed CYP isoforms (CYP1A1, 1A2, 2A6, 2B6, 2C8, 2C9, 2C19, 2D6, 2E1, 3A4, and 3A5) in the presence of 0.1 M potassium phosphate buffer (pH 7.4). The reaction was initiated by adding 100 µL of NGS at 37 °C for 60 min. Then, the mixture was suspended by adding 400 µL of ice-cold 100% ACN. Following centrifugation at 15,700× g for 10 min at 4 °C, the supernatant was transferred to a new tube and evaporated using a speed-vacuum concentrator. Next, the dried sample was diluted with 100 µL of 20% MeOH containing 0.1% formic acid, and a 5 µL aliquot was injected into a C18 column for LC–MS/MS analysis.
(§2) To identify the CYP isoforms involved in AHC metabolism, AHC (10 µM) was incubated with eleven cDNA-expressed recombinant CYP isoforms (CYP1A1, CYP1A2, CYP2A6, CYP2B6, CYP2C8, CYP2C9, CYP2C19, CYP2D6, CYP2E1, CYP3A4, and CYP3A5) in the presence of the NGS. […] However, the metabolites of AHC were not observed from reactions with other CYPs. Thus, in the metabolism of AHC in HLMs, CYP3A4 was involved as the main enzyme, and four types of metabolites were generated.

[3] = target: T2, CYP2C9 (Homo sapiens, UniProt P11712); assay: as above; type: in vitro ADME; conditions: 10 µM AHC, 10 pmol recombinant CYP, NGS, 37 °C, 60 min
T2 construct: purchased Corning Gentest
Description: as §1, §2

T2 sequence (P11712 whole entry): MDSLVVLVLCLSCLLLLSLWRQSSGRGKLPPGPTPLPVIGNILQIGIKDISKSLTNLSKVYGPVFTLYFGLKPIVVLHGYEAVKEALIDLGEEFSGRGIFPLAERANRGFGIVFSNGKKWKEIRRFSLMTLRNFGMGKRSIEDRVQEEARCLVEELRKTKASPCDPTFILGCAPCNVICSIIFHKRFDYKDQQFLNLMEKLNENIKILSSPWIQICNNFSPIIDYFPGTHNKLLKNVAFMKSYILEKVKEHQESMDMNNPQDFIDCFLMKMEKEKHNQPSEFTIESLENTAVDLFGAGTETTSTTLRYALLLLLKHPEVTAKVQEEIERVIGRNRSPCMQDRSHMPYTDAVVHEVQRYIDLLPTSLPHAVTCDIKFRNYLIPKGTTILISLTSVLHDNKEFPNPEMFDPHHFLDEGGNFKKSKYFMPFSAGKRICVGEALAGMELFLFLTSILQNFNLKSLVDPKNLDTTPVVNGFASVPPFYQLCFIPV

Question: `CC(=O)O[C@@H]1[C@@H](C)CC[C@]2(O)[C@]3(C)CC(=O)O[C@]12[C@@]1(O)C(C)=C(C(C)C)C[C@@]31O` [AHC, anhydrocinnzeylanine] was tested. Which “residual amount of AHC after reaction with SKF-525A” value [1] did it give?
Answer: Its value is “significantly increased”.

Question: What about the “metabolites of AHC from reaction with CYP2C8” value [2] of the same compound?
Answer: Its value is “not observed”.

Question: What about the “metabolites of AHC from reaction with CYP2C9” value [3] of the same compound?
Answer: The value was “not observed”.
